Results from patent US7935702B2, “Substituted biaryl quinolin-4-ylamine analogues” (Neurogen Corporation, priority 2004, dated 2011).
Where two headings read alike, the source gives them in different places.

Target: T1, human capsaicin receptor (Homo sapiens, UniProt Q8NER1)
T1 construct: expressed in transfected cells
Experiment: Calcium mobilization assay, determination of antagonist activity (Example 6)
Assay type: cell-based
Design: IC50 determined as described in Example 6: scale not given here
Experimental: A cDNA encoding full length human capsaicin receptor (SEQ ID NO:1, 2 or 3 of U.S. Pat. No. 6,482,611) is subcloned in the plasmid pBK-CMV (Stratagene, La Jolla, Calif.) for recombinant expression in mammalian cells.
Human embryonic kidney (HEK293) cells are transfected with the pBK-CMV expression construct encoding the full length human capsaicin receptor using standard methods. The transfected cells are selected for two weeks in media containing G418 (400 μg/ml) to obtain a pool of stably transfected cells. Independent clones are isolated from this pool by limiting dilution to obtain clonal stable cell lines for use in subsequent experiments.
This Example illustrates representative calcium mobilization assays for use in evaluating test compounds for agonist and antagonist activity.
Cells transfected with expression plasmids (as described in Example 4) and thereby expressing human capsaicin receptor are seeded and grown to 70-90% confluency in FALCON black-walled, clear-bottomed 96-well plates (#3904, BECTON-DICKINSON, Franklin Lakes, N.J.). The culture medium is emptied from the 96 well plates and FLUO-3 AM calcium sensitive dye (Molecular Probes, Eugene, Oreg.) is added to each well (dye solution: 1 mg FLUO-3 AM, 440 μL DMSO and 440 μl 20% pluronic acid in DMSO, diluted 1:250 in Krebs-Ringer HEPES (KRH) buffer (25 mM HEPES, 5 mM KCl, 0.96 mM NaH2PO4, 1 mM MgSO4, 2 mM CaCl2, 5 mM glucose, 1 mM probenecid, pH 7.4), 50 μl diluted solution per well). Plates are covered with aluminum foil and incubated at 37° C. for 1-2 hours in an environment containing 5% CO2. After the incubation, the dye is emptied from the plates, and the cells are washed once with KRH buffer, and resuspended in KRH buffer.
To measure the ability of a test compound to agonize or antagonize a calcium mobilization response in cells expressing capsaicin receptors to capsaicin or other vanilloid agonist, the EC50 of the agonist capsaicin is first determined. An additional 20 μl of KRH buffer and 1 μl DMSO is added to each well of cells, prepared as described above. 100 μl capsaicin in KRH buffer is automatically transferred by the FLIPR instrument to each well. Capsaicin-induced calcium mobilization is monitored using either FLUOROSKAN ASCENT (Labsystems; Franklin, Mass.) or FLIPR (fluorometric imaging plate reader system; Molecular Devices, Sunnyvale, Calif.) instruments. Data obtained between 30 and 60 seconds after agonist application are used to generate an 8-point concentration response curve, with final capsaicin concentrations of 1 nM to 3 μM. KALEIDAGRAPH software (Synergy Software, Reading, Pa.) is used to fit the data to the equation: y=a*(1/(1+(b/x)^c)) to determine the 50% excitatory concentration (EC50) for the response. In this equation, y is the maximum fluorescence signal, x is the concentration of the agonist or antagonist (in this case, capsaicin), a is the Emax, b corresponds to the EC50 value and c is the Hill coefficient. Determination of Agonist Activity
Test compounds are dissolved in DMSO, diluted in 20 μl KRH buffer so that the final concentration of test compounds in the assay well is between 1 μM and 5 μM, and added to cells prepared as described above. The 96 well plates containing prepared cells and test compounds are incubated in the dark, at room temperature for 0.5 to 6 hours. It is important that the incubation not continue beyond 6 hours. Just prior to determining the fluorescence response, 100 μl capsaicin in KRH buffer at twice the EC50 concentration determined as described above is automatically added by the FLIPR instrument to each well of the 96 well plate for a final sample volume of 200 μl and a final capsaicin concentration equal to the EC50. The final concentration of test compounds in the assay wells is between 1 μM and 5 μM. […]

[1] = cells expressing human capsaicin receptor, capsaicin at EC50, read-out: IC50 determined as described in Example 6
[2] = Table I, IC50 determined as described in Example 6, read-out: IC50

T1 sequence (Q8NER1 whole entry): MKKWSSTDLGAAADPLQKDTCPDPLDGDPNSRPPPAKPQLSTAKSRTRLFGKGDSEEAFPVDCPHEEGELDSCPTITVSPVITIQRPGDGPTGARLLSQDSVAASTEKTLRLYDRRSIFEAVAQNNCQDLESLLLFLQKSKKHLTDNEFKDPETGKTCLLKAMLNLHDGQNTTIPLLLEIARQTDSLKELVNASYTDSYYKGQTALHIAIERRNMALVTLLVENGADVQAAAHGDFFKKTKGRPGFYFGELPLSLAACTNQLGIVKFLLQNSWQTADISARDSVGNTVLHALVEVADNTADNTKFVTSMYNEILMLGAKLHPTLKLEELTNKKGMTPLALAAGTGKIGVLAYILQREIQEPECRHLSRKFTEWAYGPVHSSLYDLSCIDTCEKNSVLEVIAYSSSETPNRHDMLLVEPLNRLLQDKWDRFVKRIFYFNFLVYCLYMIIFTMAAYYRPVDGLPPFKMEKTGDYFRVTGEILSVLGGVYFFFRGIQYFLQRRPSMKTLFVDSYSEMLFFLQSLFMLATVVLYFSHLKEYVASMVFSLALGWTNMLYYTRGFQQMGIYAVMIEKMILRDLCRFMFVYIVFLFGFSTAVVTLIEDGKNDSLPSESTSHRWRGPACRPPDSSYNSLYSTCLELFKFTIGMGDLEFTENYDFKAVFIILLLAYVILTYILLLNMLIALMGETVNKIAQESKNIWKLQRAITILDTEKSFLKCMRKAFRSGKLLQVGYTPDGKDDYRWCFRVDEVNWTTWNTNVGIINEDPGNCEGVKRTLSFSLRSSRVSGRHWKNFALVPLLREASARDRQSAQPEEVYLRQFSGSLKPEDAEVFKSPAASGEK

IC50 [2] [nM] | Structure (SMILES) | other results
< 1000 | CCOc1nc(Nc2ccnc3nc(-c4ccc(C#N)cc4C(F)(F)F)cnc23)ccc1C(F)(F)F [compound 42, 4-(8-{[6-ethoxy-5-(trifluoromethyl)pyridin-2-yl]amino}pyrido[2,3-b]pyrazin-3-yl)-3-(trifluoromethyl)benzonitrile] | –
< 1000 | CC(C)N(CCCO)c1cc(C(F)(F)F)c(-c2cnc3c(Nc4ccc(C(F)(F)F)cn4)ccnc3n2)nn1 [compound 178, 3-{isopropyl[5-(trifluoro-methyl)-6-(8-{[5-(trifluoro-methyl)pyridin-2-yl]amino}-pyrido[2,3-b]pyrazin-3-yl)pyridazin-3-yl]amino}propan-1-ol] | –
< 1000 | CC(C)CN(C)c1cc(C(F)(F)F)c(-c2cnc3c(Nc4ccc(C(F)(F)F)cn4)ccnc3n2)nn1 [compound 145, 3-{6-[isobutyl(methyl)amino]-4-(trifluoromethyl)pyridazin-3-yl}-N-[5-(trifluoromethyl)-pyridin-2-yl]pyrido[2,3-b]pyrazin-8-amine] | –
< 1000 | CN(C)CC1CCCCN1c1cc(C(F)(F)F)c(-c2cnc3c(Nc4ccc(C(F)(F)F)cn4)ccnc3n2)nn1 (stereo not drawn) [compound 164, 3-[6-{2-[(dimethylamino)-methyl]piperidin-1-yl}-4-(trifluoromethyl)pyridazin-3-yl)-N-[5-(trifluoromethyl)-pyridin-2-yl]pyrido[2,3-b]pyrazin-8-amine] | –
< 1000 | CC(C)CNc1cc(C(F)(F)F)c(-c2cnc3c(Nc4ccc(C(F)(F)F)cn4)ccnc3n2)nn1 [compound 99, 3-[6-(isobutylamino)-4-(trifluoromethyl)pyridazin-3-yl]-N-[5-(trifluoromethyl)-pyridin-2-yl]pyrido[2,3-b]pyrazin-8-amine] | –
< 1000 | CCN(CCCO)c1cc(C(F)(F)F)c(-c2cnc3c(Nc4ccc(C(F)(F)F)cn4)ccnc3n2)nn1 [compound 177, 3-{ethyl[5-(trifluoromethyl)-6-(8-{[5-(trifluoromethyl)-pyridin-2-yl]amino}-pyrido[2,3-b]pyrazin-3-yl)-pyridazin-3-yl]amino}propan-1-ol] | –
< 1000 | CC(C)N1CCN(c2cc(C(F)(F)F)c(-c3cnc4c(Nc5ccc(C(F)(F)F)cn5)ccnc4n3)nn2)CC1 [compound 75, 3-[6-(4-isopropylpiperazin-1-yl)-4-(trifluoromethyl)-pyridazin-3-yl]-N-[5-(trifluoromethyl)pyridin-2-yl]pyrido[2,3-b]pyrazin-8-amine] | –
< 1000 | CCN(CC)C1CCN(c2cc(C(F)(F)F)c(-c3cnc4c(Nc5ccc(C(F)(F)F)cn5)ccnc4n3)nn2)CC1 [compound 80] | –
< 1000 | CC(C)N(CCNc1cc(C(F)(F)F)c(-c2cnc3c(Nc4ccc(C(F)(F)F)cn4)ccnc3n2)nn1)C(C)C [compound 66, N,N-diisopropyl-N′-[5-(trifluoromethyl)-6-(8-{[5-(trifluoromethyl)pyridin-2-yl]amino}pyrido[2,3-b]pyrazin-3-yl)pyridazin-3-yl]ethane-1,2-diamine] | –
< 1000 | CCOc1nc(Nc2ccnc3nc(-c4ccc(C(N)=O)cc4C(F)(F)F)cnc23)ccc1C(F)(F)F [compound 43, 4-(8-{[6-ethoxy-5-(trifluoromethyl)pyridin-2-yl]amino}pyrido[2,3-b]pyrazin-3-yl)-3-(trifluoromethyl)benzamide] | –
< 1000 | O[C@@H]1CCN(c2cc(C(F)(F)F)c(-c3cnc4c(Nc5ccc(C(F)(F)F)cn5)ccnc4n3)nn2)C1 [compound 170, (R)-1-[5-(trifluoromethyl)-6-(8-{[5-(trifluoromethyl)-pyridin-2-yl]amino}-pyrido[2,3-b]pyrazin-3-yl)-pyridazin-3-yl]pyrrolidin-3-ol] | –

Further lines, the molecule ahead of its results:

Structure (SMILES) | IC50 [2] [nM] | other results
FC(F)(F)c1ccc(Nc2ccnc3nc(-c4nnc(N5CCOCC5)cc4C(F)(F)F)cnc23)nc1 [Compound 19] | – | IC50 [1]: < 1000 nM
FC(F)(F)c1ccc(Nc2ccnc3nc(-c4ncc(Br)cc4C(F)(F)F)cnc23)nc1 [compound 31, [3-(5-Bromo-3-trifluoromethyl-pyridin-2-yl)-pyrido[2,3-b]pyrazin-8-yl]-(5-trifluoromethyl-pyridin-2-yl)-amine] | < 1000 | –
NC(=O)c1ccc(-c2cnc3c(Nc4ccc(C(F)(F)F)cn4)ccnc3n2)c(C(F)(F)F)c1 [compound 37, 3-(trifluoromethyl)-4-(8-{[5-(trifluoromethyl)pyridin-2-yl]amino}pyrido[2,3-b]pyrazin-3-yl)benzamide] | < 1000 | –
Cc1cc(F)cnc1-c1ccc2c(Nc3ccc(C(F)(F)F)cn3)ccnc2n1 [Compound 2, 7-(5-Fluoro-3-methylpyridin-2-yl)-N-(5-(trifluoromethyl)ipyridin-2-yl)-1,8-naphthyridin-4-amine] | – | IC50 [1]: < 1000 nM
NC(=O)c1cnc(-c2cnc3c(Nc4cnc5ccccc5n4)ccnc3n2)c(C(F)(F)F)c1 [compound 35, 6-[8-(quinoxalin-2-ylamino)pyrido[2,3-b]pyrazin-3-yl]-5-(trifluoromethyl)nicotinamide] | < 1000 | –
N#Cc1cnc(-c2ccc3c(Nc4ccc(C(F)(F)F)cn4)ccnc3n2)c(C(F)(F)F)c1 [Compound 7, 5-Trifluoromethyl-6-[5-(5-trifluoromethyl-pyridin-2-ylamino)-[1,8]naphthyridin-2-yl]-nicotinonitrile] | – | IC50 [1]: < 1000 nM
NC(=O)c1cnc(-c2ccc3c(Nc4ccc(C(F)(F)F)cn4)ccnc3n2)c(C(F)(F)F)c1 [Compound 8, 5-Trifluoromethyl-6-[5-(5-trifluoromethyl-pyridin-2-ylamino)-[1,8]naphthyridin-2-yl]-nicotinamide] | – | IC50 [1]: < 1000 nM
N#Cc1ccc(C(F)(F)F)c(-c2ccc3c(Nc4ccc(C(F)(F)F)cn4)ccnc3n2)n1 [compound 24, 5-Trifluoromethyl-6-[5-(5-trifluoromethyl-pyridin-2-ylamino)-[1,8]naphthyridin-2-yl]-pyridine-2-carbonitrile] | < 1000 | –
O=C(O)c1cnc(-c2ccc3c(Nc4ccc(C(F)(F)F)cn4)ccnc3n2)c(C(F)(F)F)c1 [compound 22, 5-Trifluoromethyl-6-[5-(5-trifluoromethyl-pyridin-2-ylamino)-[1,8]naphthyridin-2-yl]-nicotinic acid] | < 1000 | –
Nc1cnc(-c2ccc3c(Nc4ccc(C(F)(F)F)cn4)ccnc3n2)c(C(F)(F)F)c1 [Compound 3, 7-(5-Amino-3-(trifluoromethyl)pyridin-2-yl)-N-(5-(trifluoromethyl)pyridin-2-yl)-1,8-naphthyridin-4-amine] | – | IC50 [1]: < 1000 nM
O=C(O)c1cnc(-c2cnc3c(Nc4ccc(C(F)(F)F)cn4)ccnc3n2)c(C(F)(F)F)c1 [Compound 13, 5-(Trifluoromethyl)-6-(8-(5-(trifluoromethyl)pyridin-2-ylamino)pyrido[2,3-b]pyrazin-3-yl)nicotinic acid] | – | IC50 [1]: < 1000 nM
N#Cc1cnc(-c2cnc3c(Nc4ccc(C(F)(F)F)cn4)ccnc3n2)c(C(F)(F)F)c1 [Compound 11, 5-(Trifluoromethyl)-6-(8-(5-(trifluoromethyl)pyridin-2-ylamino)pyrido[2,3-b]pyrazin-3-yl)nicotinonitrile] | – | IC50 determined as described in Example 6 (cells expressing human capsaicin receptor, capsaicin at EC50): less
CCOc1nc(Nc2ccnc3nc(-c4ncc(C(N)=O)cc4C(F)(F)F)cnc23)ccc1C(F)(F)F [Compound 9, 6-(8-(6-Ethoxy-5-(trifluoromethyl)pyridin-2-ylamino)pyrido[2,3-b]pyrazin-3-yl)-5-(trifluoromethyl)nicotinamide] | – | IC50 [1]: < 1000 nM
